Patent publication US20100240718A1, “NOVEL HETEROARYL-SUBSTITUTED ACETONE DERIVATIVE, SUITABLE FOR INHIBITING PHOSPHOLIPASE A2” (WESTFALISCHE WILHELMS UNIVERSITÄT MÜNSTER, priority 2007, published 2010)

Assays:
[1] = biological target: T1, cytosolic phospholipase A2 (Homo sapiens, UniProt P47712); assay: Inhibition of cytosolic phospholipase A2 isolated from human thrombocytes (arachidonic acid release from SAPC, HPLC-UV); type: biochemical; settings: for inhibition at 0.1 µM: read-out: inhibition of the activity of cytosolic phospholipase A2 compared to the control value
T1 construct: cytosolic phospholipase A2 obtained from human thrombocytes; from tissue; host or cells: human thrombocytes (platelets)
T1 sequence (P47712 1-749): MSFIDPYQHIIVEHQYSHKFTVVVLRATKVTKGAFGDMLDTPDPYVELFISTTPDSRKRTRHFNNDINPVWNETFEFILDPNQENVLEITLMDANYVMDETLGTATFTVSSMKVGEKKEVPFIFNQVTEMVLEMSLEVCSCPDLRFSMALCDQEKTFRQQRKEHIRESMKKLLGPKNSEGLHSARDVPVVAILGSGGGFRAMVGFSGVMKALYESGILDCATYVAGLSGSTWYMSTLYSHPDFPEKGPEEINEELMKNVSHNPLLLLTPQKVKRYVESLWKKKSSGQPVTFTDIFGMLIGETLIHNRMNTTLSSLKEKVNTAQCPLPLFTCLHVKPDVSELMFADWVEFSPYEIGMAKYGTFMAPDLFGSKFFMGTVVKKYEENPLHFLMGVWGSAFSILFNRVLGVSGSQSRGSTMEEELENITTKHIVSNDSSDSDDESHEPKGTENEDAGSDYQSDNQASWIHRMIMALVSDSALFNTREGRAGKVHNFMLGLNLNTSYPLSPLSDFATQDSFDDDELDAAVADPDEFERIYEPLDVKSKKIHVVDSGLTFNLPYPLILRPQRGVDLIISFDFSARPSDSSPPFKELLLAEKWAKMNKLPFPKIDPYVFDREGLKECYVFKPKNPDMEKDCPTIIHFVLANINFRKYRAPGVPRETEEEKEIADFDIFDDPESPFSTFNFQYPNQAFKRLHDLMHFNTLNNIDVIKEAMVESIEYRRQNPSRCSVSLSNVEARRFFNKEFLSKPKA
Experimental: The effectiveness of the inventive compounds is determinable by referring to the inhibition of the cytosolic phospholipase A2. For this purpose, cytosolic phospholipase A2 that had been isolated from human thrombocytes was used.
The IC50 value of the compounds for the inhibition of cytosolic phospholipase A2 corresponds to the concentration of the compounds that is necessary to reduce the activity of the enzyme by 50%.
The IC50 values were calculated from the values of cytosolic phospholipase A2 inhibition obtained from different concentrations with the help of the Probit model (see Hartke, Mutschler, DAB 9 Kommentar Band 1 S. 733-734, Wissenschaftliche Verlagsgesellschaft Stuttgart 1978).
The effectiveness of the inventive compounds was determined based on the inhibition of cytosolic phospholipase A2. The determination was accomplished, if not described otherwise hereinafter, as was described in Schmitt, M.; Lehr, M., “HPLC assay with UV spectrometric detection for the evaluation of inhibitors of cytosolic phospholipase A2” J. Pharm. Biomed. Anal. 2004, 35, 135-142.
Cytosolic phospholipase A2 that had been isolated from human thrombocytes was used as the enzyme source.
To produce a solution of covesicles from the substrate 1-stearoyl-2-arachidonoyl-sn-glycero-3-phosphocholine (SAPC) (Sigma) and 1,2-dioleoyl-sn-glycerol (DOG) (Sigma), corresponding amounts of the chloroform solution from SAPC (10 mg/ml) and DOG (5 mg/ml) were mixed and then the chloroform was steamed away in a stream of nitrogen. The residue was mixed with enough Tris buffer ([…], 1 mM dithiothreitol, 150 mM NaCl, 1 mM CaCl2, ph 8 at 20° C.) that a concentration for SAPC of 0.26 mM and a concentration for DOG of 0.13 mM were present. The mixture was homogenized for 10 minutes in an ultrasonic bath at 35° C. for the purpose of forming covesicles.
2 μl of the solution of the respective compound in DMSO (made from a 5 mM stock solution in DMSO) or, in the case of the control value, 2 μl of DMSO, were each mixed with 78 μl of the substrate mixture in Eppendorf tubes.
After 10 minutes of preincubation in a water bath at 37° C., 20 μl of the solution of cytosolic phospholipase A2 obtained from human thrombocytes were added to each of the […] and this mixture was incubated for another 60 minutes at 37° C. The incubation preparations contained 0.20 mM SAPC and 0.10 mM DOG per 100 μl. After that, the enzyme reaction was stopped by adding 400 μl of a solution of acetronitrile/methanol/0.1 M aqueous EDTA-solution in ratios 16:15:1 (v/v/v), whereby this solution contained 3 μg/ml nordihydroguaiaretic acid (NDGA) (Sigma) as antioxidant and 1.55 μg/ml 4-undecyloxybenzoic acid as internal standard. Subsequently, the samples were placed in ice for 10 to 15 minutes and then stored at −20° C. until solid phase extraction.
The octadecyl solid phase extraction columns with a bed volume of 200 mg and a capacity of 3 ml (Baker) were initially washed with 6 ml methanol and then with 6 ml water. The samples were diluted with 2 ml 0.005 M aqueous NaOH and then introduced to the solid phase columns. […] The eluate was mixed with 600 μl water. 100 μl of this solution was injected into the HPLC apparatus (Waters, Waters 717plus Autosampler, Waters 515 pump, and Waters 2487 UV detector). Data analysis was accomplished using the software program Millennium. For the column, a Nucleosil 100-3 C18 column (125×3 mm) with a Nucleosil 100-3 C18 pre-column (20×3 mm) (CS-Chromatographie-Service, Langerwehe) was used. The flow rate was 0.4 ml/min; the detection wavelength was 200 nm. A mixture of acetonitrile/water/phosphoric acid (85%) in ratios 770:230:1 (v/v/v) was used for the flow medium. The chromatogram run time was 30 minutes. Before the next injection, the column was always equilibrated for 15 minutes.

[2] = tested on: contact dermatitis induced by benzalkonium chloride; assay: Anti-inflammatory properties in vivo, contact dermatitis induced by benzalkonium chloride (ear swelling); settings: topical, 10 μl of a 1% solution in acetone (0.1 mg/ear), BALB/c mice, measured 1 to 72 hours
Experimental: The determination of the anti-inflammatory properties in vivo in the model of contact dermatitis induced by benzalkonium chloride was accomplished, if not stated otherwise hereinafter, according to the method published by E. Hyun et al., British Journal of Pharmacology, 2004, 143, S. 618-625.
BALB/c mice (Harlan Winkelmann GmbH, Borchen) were used as laboratory animals. A contact dermatitis was induced by introducing 10 μl per ear of a 5% benzalkonium chloride solution (Sigma) in olive oil/acetone (1:5) to the dorsal side of both ears for each of 8 lab animals per experimental group. This led to a swelling of the ears.
After 1 hour, 3 hours, 5 hours, 7 hours, 24 hours, 48 hours, and 72 hours, the ear thicknesses were measured using a digital caliper (Roth, Karlsruhe).

[3] = Determining water solubility in phosphate buffered saline (pH 7.4), HPLC; type: physicochemical; settings: phosphate buffered saline (PBS buffer), aqueous buffer, thermodynamic from solid; PBS buffer pH 7.4; range or bound stated jointly for the listed compounds
Experimental: The water solubility of the compounds was determined by administering aqueous phosphate buffer (pH 7.4) to each respective compound, and the dissolved amount was determined after shaking and centrifugation, as is described in example 12.
The determination of the water solubility of the compound was accomplished, if not hereinafter stated otherwise, with reference to the method published by Kim et al., J. Med. Chem. 2005, 48, 3621-3629.
The mixture was placed in an ultrasonic bath (Sonorex TK52, Bandelin) for 10 minutes and then shaken lightly in a shaking water bath (GFL 1083). Subsequently, the mixture was centrifuged for 10 minutes at 4000×g and room temperature. About 1 ml clear solution was taken from the supernatant. 200 μl of the clear solution were mixed with 250 μl acetonitrile (VWR) and 50 μl 0.1 M phosphoric acid. From this solution, a volume of between 5 μl and 100 μl was injected into an HPLC system (Waters, Waters 717plus Autos ampler, Waters 515 pump, and Waters 2487 UV detector)
For reference solution 1, 2 μl of a 5 mM solution of the respective compound in dimethyl sulfoxide (DMSO) were mixed with 198 μl PBS buffer, 250 μl acetonitrile, and 50 μl 0.1 M phosphoric acid. For reference solution 2, 2 μl of a 5 mM solution of the respective compound in DMSO were mixed with 398 μl PBS buffer, 500 μl acetonitrile, and 100 μl 0.1 M phosphoric acid.
C18 Aqua®-columns from the company Phenomenex (Aqua®, RP18, 75×4.6 mm, 3 μm) were used as the stationary phase.
were determined under corresponding conditions.

Row | Structure (SMILES) | inhibition at 0.1 µM [1] [%] | increase in ear thickness compared to the negative control [2] | solubility [3] [mg/mL] | IC50 [1] [µM]
1 | CCCCCCCCc1ccc(OCC(=O)Cn2cc(C(=O)CCCC(=O)O)c3cc(C(=O)O)ccc32)cc1 [formula (2), 3-(4-carboxybutanoyl)-1-[3-(4-octylphenoxy)-2-oxopropyl]indole-5-carboxylic acid] | 30 to 97 | – | – | –
2 | CCCCCCCCc1ccc(OCC(=O)Cn2cc(C(=O)CCCCC(=O)O)c3cc(C(=O)O)ccc32)cc1 [formula (3), 3-(5-carboxypentanoyl)-1-[3-(4-octylphenoxy)-2-oxopropyl]indole-5-carboxylic acid] | – | significantly decreased increase in ear thickness | – | –
3 | O=C(O)CCC(=O)c1cn(CC(=O)COc2ccc(Oc3ccc(C(F)(F)F)cc3)cc2)c2ccc(C(=O)O)cc12 [formula (4), 3-(3-carboxypropanoyl)-1-{2-oxo-3-[4-(4-trifluormethylphenoxy)phenoxy]propyl}indole-5-carboxylic acid] | 30 to 97 | – | 0.19 to 0.41 | 0.19
4 | COC(=O)CCC(=O)c1cn(CC(=O)COc2ccc(Oc3ccc(C(F)(F)F)cc3)cc2)c2ccc(C(=O)O)cc12 [formula (5), 3-(3-methoxycarbonylpropanoyl)-1-{2-oxo-3-[4-(4-trifluormethylphenoxy)phenoxy]propyl}indole-5-carboxylic acid] | 30 to 97 | – | 0.015 to 0.035 | 0.022
5 | CCCCCCCCc1ccc(OCC(=O)Cn2cc(C(=O)C(F)(F)F)c3cc(C(=O)O)ccc32)cc1 [formula (6), 1-[3-(4-octylphenoxy)-2-oxopropyl]-3-(2,2,2-trifluoracetyl)indole-5-carboxylic acid] | 30 to 97 | – | – | –
6 | CCCCCCCCc1ccc(OCC(=O)Cn2cc(C(C)=O)c3cc(C(=O)O)ccc32)cc1 [formula (10), reference compound] | – | – | < 0.001 | –
7 | CCCCCCCCc1ccc(OCC(=O)Cn2cc(C(=O)OC)c3cc(C(=O)O)ccc32)cc1 [formula (11), reference compound] | – | – | < 0.001 | –
